Converted amounts (≈) assume the structure as drawn. Where a SMILES comes first, the peptide text is derived from it. [ ]: non-standard residue; d: D form.
What was measured:
[1] = tested on: S. aureus; test: microbe, parasite or virus in culture; format: cell-based, Staphylococcus aureus
Outline: (§1)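 MIC read-out = lowest peptide level with no bacterial proliferation. Strains diluted in MH medium to 2×10^6 CFU; peptide twofold serial dilutions in MH added 1:1 in microtiter wells.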

[2] = tested on: MDRST 8007; test: Minimal inhibitory concentration (MIC), single agent; format: cell-based, Salmonella typhimurium; settings: agent alone
Outline: as §1

[3] = tested on: MDRPA 2002; format: cell-based, Pseudomonas aeruginosa
Outline: as §1

[4] = tested on: B. subtilis; test: microbe, parasite or virus in culture; format: cell-based, Bacillus subtilis
Outline: as §1

[5] = tested on: S. typhimurium; test: microbe, parasite or virus in culture; format: cell-based, Salmonella typhimurium
Outline: as §1

[6] = tested on: E. coli; test: microbe, parasite or virus in culture; format: cell-based, Escherichia coli; settings: 16 h
Outline: as §1

[7] = tested on: MDREC 1229; test: microbe, parasite or virus in culture; format: cell-based, Escherichia coli
Outline: as §1

[8] = tested on: A. baumannii; test: microbe, parasite or virus in culture; format: cell-based, Acinetobacter baumannii
Outline: as §1

[9] = tested on: MDRAB 12035; test: microbe, parasite or virus in culture; format: cell-based, Acinetobacter baumannii
Outline: as §1

[10] = tested on: MRSA 3114; format: cell-based, Staphylococcus aureus; settings: 3114
Outline: as §1

[11] = tested on: MRSA 3126; format: cell-based, Staphylococcus aureus; settings: 3126
Outline: as §1

[12] = tested on: E. coli; test: MIC of antibiotic during combined treatment with antimicrobial peptide; format: cell-based, Escherichia coli; settings: for Synergistic effect of antibacterial activity with existing antibiotics compared with PapMA-1: E. coli and MDREC1229; for Antibiotic MIC, Erythromycin / Antibiotic MIC, Linezolid / Antibiotic MIC, Vancomycin: E. coli
Outline: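 Antibiotic diluted in MH medium, dispensed per well with peptide; setup repeated with roles reversed; MIC read per combination.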

[13] = erythromycin combined with peptide at 1 μg/ml
[14] = erythromycin combined with peptide at 2 μg/ml
[15] = erythromycin combined with peptide at 4 μg/ml
[16] = erythromycin combined with peptide at 6 μg/ml
[17] = erythromycin combined with peptide at 8 μg/ml
[18] = erythromycin combined with peptide at 16 μg/ml
[19] = erythromycin combined with peptide at 32 μg/ml
[20] = erythromycin combined with peptide at 64 μg/ml
[21] = linezolid combined with peptide at 1 μg/ml
[22] = linezolid combined with peptide at 2 μg/ml
[23] = linezolid combined with peptide at 4 μg/ml
[24] = linezolid combined with peptide at 6 μg/ml
[25] = linezolid combined with peptide at 8 μg/ml
[26] = linezolid combined with peptide at 16 μg/ml
[27] = linezolid combined with peptide at 32 μg/ml
[28] = linezolid combined with peptide at 64 μg/ml
[29] = vancomycin combined with peptide at 1 μg/ml
[30] = vancomycin combined with peptide at 2 μg/ml
[31] = vancomycin combined with peptide at 4 μg/ml
[32] = vancomycin combined with peptide at 6 μg/ml
[33] = vancomycin combined with peptide at 8 μg/ml
[34] = vancomycin combined with peptide at 16 μg/ml
[35] = vancomycin combined with peptide at 32 μg/ml
[36] = vancomycin combined with peptide at 64 μg/ml

Row | SMILES | Minimal inhibitory concentration MIC [1] | Minimal inhibitory concentration MIC [2] | Minimal inhibitory concentration MIC [3] | Minimal inhibitory concentration MIC [4] | Minimal inhibitory concentration MIC [5] | Minimal inhibitory concentration MIC [6] | Minimal inhibitory concentration MIC [7] | Minimal inhibitory concentration MIC [8] | Peptide MIC, peptide alone [8] | Minimal inhibitory concentration MIC [9] | Peptide MIC, peptide alone [9] | Minimal inhibitory concentration MIC [10] | Minimal inhibitory concentration MIC [11] | Synergistic effect of antibacterial activity with existing antibiotics compared with PapMA-1 [12] | Antibiotic MIC, Erythromycin [12, 13] | Antibiotic MIC, Erythromycin [12, 14] | Antibiotic MIC, Erythromycin [12, 15] | Antibiotic MIC, Erythromycin [12, 16] | Antibiotic MIC, Erythromycin [12, 17] | Antibiotic MIC, Erythromycin [12, 18] | other results
1 | CC[C@H](C)[C@H](NC(=O)[C@H](CCCCN)NC(=O)[C@H](Cc1c[nH]c2ccccc12)NC(=O)[C@@H](N)CCCNC(=N)N)C(=O)N[C@@H](Cc1ccccc1)C(=O)N[C@@H](CCCCN)C(=O)N[C@@H](CCCCN)C(=O)N[C@H](C(=O)N1CCC[C@H]1C(=O)N[C@@H](CCCCN)C(=O)N[C@@H](Cc1ccccc1)C(=O)N[C@@H](CC(C)C)C(=O)N[C@@H](Cc1c[nH]cn1)C(=O)N[C@@H](CO)C(=O)N[C@@H](Cc1ccccc1)C(=O)N[C@@H](CCCCN)C(=O)N[C@@H](CCCCN)C(=O)N[C@@H](Cc1ccccc1)C(N)=O)[C@@H](C)CC [PapMA-5, RWK IFK KIP KFL HSF KKF-NH2] (H-RWKIFKKIPKFLHSFKKF-NH2; N-terminus assumed) | >128 µg/mL | 64 µg/mL (≈ 26.9 µM) | 16 µg/mL (≈ 6.73 µM) | >128 µg/mL | 64 µg/mL (≈ 26.9 µM) | 64 µg/mL (≈ 26.9 µM) | 64 µg/mL (≈ 26.9 µM) | 64 µg/mL (≈ 26.9 µM) | 64 µg/mL | 64 µg/mL (≈ 26.9 µM) | 64 µg/mL | >128 µg/mL | >128 µg/mL | level similar to that of the PapMA-1 peptide | 128 µg/mL | 64 µg/mL | 32 µg/mL | 8 µg/mL | 2 µg/mL | 0.5 µg/mL | Antibiotic MIC, Erythromycin [12, 19]: 0.5 µg/mL; Antibiotic MIC, Erythromycin [12, 20]: 0 µg/mL; Antibiotic MIC, Linezolid [12, 21]: >128 µg/mL; Antibiotic MIC, Linezolid [12, 22]: 128 µg/mL; Antibiotic MIC, Linezolid [12, 23]: 64 µg/mL; Antibiotic MIC, Linezolid [12, 24]: 32 µg/mL; Antibiotic MIC, Linezolid [12, 25]: 16 µg/mL; Antibiotic MIC, Linezolid [12, 26]: 8 µg/mL; Antibiotic MIC, Linezolid [12, 27]: 2 µg/mL; Antibiotic MIC, Linezolid [12, 28]: 0 µg/mL; Antibiotic MIC, Vancomycin [12, 29]: >128 µg/mL; Antibiotic MIC, Vancomycin [12, 30]: >128 µg/mL; Antibiotic MIC, Vancomycin [12, 31]: 128 µg/mL; Antibiotic MIC, Vancomycin [12, 32]: 64 µg/mL; Antibiotic MIC, Vancomycin [12, 33]: 32 µg/mL; Antibiotic MIC, Vancomycin [12, 34]: 8 µg/mL; Antibiotic MIC, Vancomycin [12, 35]: 2 µg/mL; Antibiotic MIC, Vancomycin [12, 36]: 0 µg/mL
2 | CC[C@H](C)[C@H](NC(=O)[C@H](CCCCN)NC(=O)[C@H](Cc1c[nH]c2ccccc12)NC(=O)[C@@H](N)CCCNC(=N)N)C(=O)N[C@@H](Cc1ccccc1)C(=O)N[C@@H](CCCCN)C(=O)N[C@@H](CCCCN)C(=O)N[C@H](C(=O)N[C@H](CCCCN)C(=O)N[C@@H](CCCCN)C(=O)N[C@@H](CC(C)C)C(=O)N[C@@H](CC(C)C)C(=O)N[C@@H](Cc1c[nH]cn1)C(=O)N[C@@H](CCCCN)C(=O)N[C@@H](C)C(=O)N[C@@H](CCCCN)C(=O)N[C@@H](CCCCN)C(=O)N[C@@H](Cc1c[nH]c2ccccc12)C(N)=O)[C@@H](C)CC [PapMA-18, RWK IFK KIk KLL HKA KKW-NH2] (H-RWKIFKKI[dK]KLLHKAKKW-NH2; N-terminus assumed) | >128 µg/mL | 64 µg/mL (≈ 26.9 µM) | 32 µg/mL (≈ 13.5 µM) | >128 µg/mL | 32 µg/mL (≈ 13.5 µM) | 64 µg/mL (≈ 26.9 µM) | 64 µg/mL (≈ 26.9 µM) | 32 µg/mL (≈ 13.5 µM) | 32 µg/mL | 32 µg/mL (≈ 13.5 µM) | 32 µg/mL | >128 µg/mL | >128 µg/mL | higher level than the PapMA-1 peptide | 128 µg/mL | 32 µg/mL | 8 µg/mL | 1 µg/mL | 1 µg/mL | 0.25 µg/mL | Peptide MIC, peptide alone [7]: 64 µg/mL; Antibiotic MIC, Erythromycin [12, 19]: 0.125 µg/mL; Antibiotic MIC, Erythromycin [12, 20]: 0 µg/mL; Antibiotic MIC, Linezolid [12, 21]: >128 µg/mL; Antibiotic MIC, Linezolid [12, 22]: >128 µg/mL; Antibiotic MIC, Linezolid [12, 23]: 64 µg/mL; Antibiotic MIC, Linezolid [12, 24]: 16 µg/mL; Antibiotic MIC, Linezolid [12, 25]: 8 µg/mL; Antibiotic MIC, Linezolid [12, 26]: 8 µg/mL; Antibiotic MIC, Linezolid [12, 27]: 4 µg/mL; Antibiotic MIC, Linezolid [12, 28]: 0 µg/mL; Antibiotic MIC, Vancomycin [12, 29]: >128 µg/mL; Antibiotic MIC, Vancomycin [12, 30]: >128 µg/mL; Antibiotic MIC, Vancomycin [12, 31]: >128 µg/mL; Antibiotic MIC, Vancomycin [12, 32]: 32 µg/mL; Antibiotic MIC, Vancomycin [12, 33]: 16 µg/mL; Antibiotic MIC, Vancomycin [12, 34]: 8 µg/mL; Antibiotic MIC, Vancomycin [12, 35]: 4 µg/mL; Antibiotic MIC, Vancomycin [12, 36]: 0 µg/mL
